ChEMBL document CHEMBL1201862, “PubChem BioAssay data set” (2004)
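Dose response: 5 concentrations. Exposure: 48 h. Format: 96-well plates. Endpoint: linear interpolation; highest concentration if not reached. GI50: concentration for 50% inhibition of growth.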 The source made the active and inactive calls. Cut-off read from the data, not from the text of the source: active = GI50 up to about 1.1 µM and inactive = higher.

Key:
Experiment in all cases: NCI tumour cell line growth inhibition, 48 h
[1] = system: UACC-62
[2] = system: SW-620
[3] = system: SNB-19
[4] = system: A549
[5] = system: SN12C
[6] = system: SNB-75
[7] = system: UO-31
[8] = system: NCI-H23
[9] = system: MOLT-4
[10] = system: NCI-H226
[11] = system: 786-0
[12] = system: HCT-15
[13] = system: HT-29
[14] = system: DU-145
[15] = system: NCI-H522
[16] = system: A498
[17] = system: Hs-578T
[18] = system: RXF 393
[19] = system: CCRF-CEM
[20] = system: MDA-N

| SMILES | GI50 [1] | GI50 [2] | GI50 [3] | GI50 [4] | GI50 [5] | GI50 [6] | GI50 [7] | GI50 [8] | GI50 [9] | GI50 [10] | GI50 [11] | GI50 [12] [µM] | GI50 [13] | GI50 [14] | GI50 [15] | GI50 [16] | GI50 [17] | GI50 [18] | GI50 [19] | GI50 [20] |
| --- | --- | --- | --- | --- | --- | --- | --- | --- | --- | --- | --- | --- | --- | --- | --- | --- | --- | --- | --- | --- |
| CC1CCC(C(C)C2C(O)CC3C4CC=C5CC(O)CCC5(C)C4CCC32C)NC1 (stereo unspecified) | 49.5 µM (inactive) | 31.7 µM (inactive) | 25.7 µM (inactive) | 83 µM (inactive) | 20.3 µM (inactive) | 28.2 µM (inactive) | 41.4 µM (inactive) | 36.9 µM (inactive) | 8.38 µM (inactive) | 70.8 µM (inactive) | 32.2 µM (inactive) | 44 | 43.1 µM (inactive) | 69.8 µM (inactive) | 63 µM (inactive) | > 100 µM (inactive) | 35.9 µM (inactive) | 65 µM (inactive) | – | – |
| COc1cc(Br)cc2cc(-c3cn4ccsc4n3)c(=O)oc12 | 22.2 µM (inactive) | 36 µM (inactive) | 30.4 µM (inactive) | 30.3 µM (inactive) | 28.1 µM (inactive) | 32.1 µM (inactive) | 23.8 µM (inactive) | 39.1 µM (inactive) | 32 µM (inactive) | – | 42.8 µM (inactive) | 33 | 40.2 µM (inactive) | 30.5 µM (inactive) | 31 µM (inactive) | – | 41.5 µM (inactive) | 24.8 µM (inactive) | 35 µM (inactive) | 17 µM (inactive) |
| O=c1c2c(c1=O)C1(SCCCS1)c1cc(Cl)ccc1O2 | > 100 µM (inactive) | > 100 µM (inactive) | > 100 µM (inactive) | > 100 µM (inactive) | > 100 µM (inactive) | > 100 µM (inactive) | > 100 µM (inactive) | > 100 µM (inactive) | > 100 µM (inactive) | > 100 µM (inactive) | > 100 µM (inactive) | > 100 | > 100 µM (inactive) | > 100 µM (inactive) | > 100 µM (inactive) | > 100 µM (inactive) | – | > 100 µM (inactive) | > 100 µM (inactive) | > 100 µM (inactive) |
| O=C(c1ccccc1)n1c2ccc(Br)cc2c2nc3ccccc3nc21 | > 100 µM (inactive) | > 100 µM (inactive) | > 100 µM (inactive) | – | > 100 µM (inactive) | 46.2 µM (inactive) | 45.8 µM (inactive) | > 100 µM (inactive) | 46.9 µM (inactive) | > 100 µM (inactive) | 37.8 µM (inactive) | > 100 | > 100 µM (inactive) | > 100 µM (inactive) | 43.7 µM (inactive) | – | – | > 100 µM (inactive) | 58.9 µM (inactive) | > 100 µM (inactive) |
| O[C@@]12Cc3c([nH]c4ccccc34)[C@@H]3Oc4c(-c5ccccc5)ccc5c4[C@@]31CCN(CC1CC1)[C@@H]2C5 | 1.8 µM (inactive) | 2.11 µM (inactive) | 1.88 µM (inactive) | 1.89 µM (inactive) | – | – | 1.74 µM (inactive) | 1.78 µM (inactive) | 3.07 µM (inactive) | – | 1.65 µM (inactive) | 1.95 | 1.77 µM (inactive) | – | 1.77 µM (inactive) | 1.47 µM (inactive) | 1.85 µM (inactive) | – | 2.92 µM (inactive) | 1.73 µM (inactive) |
| O=c1oc2ccccc2c2c1Sc1ccccc1N2 | 50.1 µM (inactive) | > 100 µM (inactive) | > 100 µM (inactive) | > 10 µM (inactive) | > 100 µM (inactive) | – | > 100 µM (inactive) | 74.8 µM (inactive) | 63.4 µM (inactive) | 82.4 µM (inactive) | > 100 µM (inactive) | 36.2 | > 100 µM (inactive) | > 100 µM (inactive) | > 100 µM (inactive) | > 100 µM (inactive) | > 100 µM (inactive) | 64.9 µM (inactive) | 75.9 µM (inactive) | – |
| c1cncc(CNCCN2CCNCC2)c1 | > 100 µM (inactive) | > 100 µM (inactive) | > 100 µM (inactive) | > 100 µM (inactive) | > 100 µM (inactive) | > 100 µM (inactive) | > 100 µM (inactive) | > 100 µM (inactive) | > 100 µM (inactive) | > 100 µM (inactive) | > 100 µM (inactive) | > 100 | > 100 µM (inactive) | – | > 100 µM (inactive) | > 100 µM (inactive) | > 100 µM (inactive) | > 100 µM (inactive) | – | > 100 µM (inactive) |
| C[C@]1(S(=O)(=O)c2ccccc2)C[C@H]2N(Cc3ccccc3)[C@@H]1CCC21OCCO1 | > 100 µM (inactive) | 94.6 µM (inactive) | > 100 µM (inactive) | 86.1 µM (inactive) | > 100 µM (inactive) | > 100 µM (inactive) | > 100 µM (inactive) | 60.5 µM (inactive) | 30.8 µM (inactive) | – | > 100 µM (inactive) | 63.1 | 58.6 µM (inactive) | > 100 µM (inactive) | 72.6 µM (inactive) | – | > 100 µM (inactive) | > 100 µM (inactive) | 49.1 µM (inactive) | > 100 µM (inactive) |
